Source: BigSolDB 2.1

CS(=O)(=O)c1ccc([C@@H](O)[C@@H](CO)NC(=O)C(Cl)Cl)cc1
solubility (mole fraction)
Settings | 278.15 K | 283.15 K | 288.15 K | 293.15 K | 298.15 K | 303.15 K | 308.15 K | 313.15 K | 318.15 K
in 1,4-dioxane | – | – | 0.000384 | 0.000508 | 0.000728 | 0.000973 | 0.0013 | 0.00173 | 0.00227
in 2-butanone | 0.000139 | 0.000197 | 0.000286 | 0.000379 | 0.00051 | 0.000704 | 0.000952 | 0.00125 | 0.00166
in DMF | 0.0092 | 0.012 | 0.0156 | 0.0199 | 0.025 | 0.0308 | 0.0379 | 0.0457 | 0.0553
in acetone | 0.000283 | 0.000425 | 0.000585 | 0.00084 | 0.00112 | 0.00149 | 0.00202 | 0.00268 | 0.00352
in acetonitrile | 7.96e-05 | 0.000119 | 0.000177 | 0.000259 | 0.000363 | 0.000502 | 0.000716 | 0.00098 | 0.00134
in ethanol | 0.000102 | 0.000148 | 0.000219 | 0.000309 | – | 0.000625 | 0.000837 | 0.00115 | 0.00157
in ethyl acetate | 6.24e-05 | 9.09e-05 | 0.000124 | 0.000171 | 0.000246 | 0.000348 | 0.000471 | 0.000643 | 0.000861
in isopropanol | 3.46e-05 | 5.2e-05 | 7.13e-05 | 0.000104 | 0.000146 | 0.000201 | 0.000269 | 0.000364 | 0.000493
in methanol | 0.00023 | 0.000345 | 0.000518 | 0.000715 | 0.000993 | 0.00141 | 0.00189 | 0.00259 | 0.00341
in n-butanol | 9.54e-06 | 1.38e-05 | 2.08e-05 | 3.1e-05 | 4.46e-05 | 6.39e-05 | 8.42e-05 | 0.000123 | 0.000165
in n-propanol | 5.11e-05 | 7.34e-05 | 0.000103 | 0.000147 | 0.000199 | 0.000285 | 0.00038 | 0.000509 | 0.000687
in toluene | 3.96e-06 | 6.03e-06 | 8.89e-06 | 1.28e-05 | 1.89e-05 | 2.7e-05 | 3.81e-05 | 5.53e-05 | 7.6e-05
in water | 2.5e-05 | 3.42e-05 | 4.96e-05 | 7.3e-05 | 9.52e-05 | 0.000132 | 0.000187 | 0.000253 | 0.000339
